Where two headings read alike, the source gives them in different places.

Assay [1] concerns Hsp70. As to the kind of experiment: Immunoblot analysis of induction of Hsp70 in DRG sensory neurons. It is filed as cell-based, Sprague Dawley rat. The settings on record: 24 hours incubation, then 4 hours of glucotoxic stress; Hsp70 normalized to β-actin. As to the method: DRG sensory neurons were incubated in the presence of DMSO (Cntrl) or 10-1000 nM of the indicated novologue overnight and then subjected to 4 hrs of hyperglycemia. The neurons were harvested and Hsp70 and β-actin levels were determined by immunoblot analysis. Band intensity was quantified using Image J, Hsp70 expression was normalized to the level of β-actin.
Since it was previously shown that the cytoprotective activity manifested by KU-32 requires Hsp70, the ability of 11b and 11n to induce Hsp70 was determined relative to KU-32. Increasing concentrations of KU-32, 11n, and 11b were incubated with DRG sensory neurons for 24 hours before the cells were subjected to 4 hours of glucotoxic stress. Hsp70 levels were examined by performing immunoblot analysis with the cellular lysates (FIG. 5). 11n and 11b induced Hsp70 levels at similar concentrations (10 nM) as those needed for neuroprotection.
DRG from embryonic day 15-18 Sprague Dawley rat pups were harvested into Leibovitz's L15 medium (L15) and dissociated with 0.25% trypsin for 30 min at 37° C. […]
In general terms: A western blot detects proteins with antibodies after separation by electrophoresis.

Assay [2] has as its system embryonic dorsal root ganglion (DRG) sensory neuron cultures. As to the kind of experiment: Glucotoxicity assay: cell viability (calcein AM) of DRG sensory neurons under glucose-induced toxicity. It is filed as cell-based, Sprague Dawley rat. The conditions noted are these: for EC50: 0.1-1000 nM novologue overnight, then 4 hrs of hyperglycemia, mean±SEM (n=3-8), read-out: EC50 for protection against glucose-induced toxicity. The procedure:
DRG sensory neurons were incubated in the absence or presence of 0.1-1000 nM of the indicated novologue overnight and then subjected to 4 hrs of hyperglycemia.
The ganglia were sedimented at 1,000×g for 5 min, resuspended in growth media [phenol red free Neurobasal medium (Gibco, Grand Island, NY) containing 25 mM glucose, 1X B-27 additive, 50 ng/ml NGF (Harlan Bioscience, Indianapolis, IN), 4 mM glutamine, 100 U/mL penicillin and 100 μg/mL streptomycin] and triturated with a fire-polished glass pipette. The cells were cultured on collagen-coated (0.1 mg/mL collagen followed by overnight air drying in a laminar flow hood) black-walled 96-well plates (Corning Incorporated Corning, NY) at a seeding density of 2-3×10^4 cells per well. DRG neurons were re-fed the next day with fresh growth media containing 40 μM fluorodeoxyuridine and 10 μM cytosine β-D-arabinoside (both from Sigma Aldrich, St. Louis, MO) for 2 days to remove proliferating cells. Experiments were performed on DRG neurons on the third day in culture after placing the cells in fresh growth medium. […]
DRG neurons were incubated overnight with the test compounds in the presence of Neurobasal medium, 50 ng/ml NGF and antibiotics only. In order to monitor the efficiency of the compounds in protecting DRG neurons against glucotoxicity, Calcein AM (Invitrogen, Carlsbad, CA) was utilized to measure cell viability. Hydrolysis of calcein AM to a fluorescent product can only occur in live cells. Excess glucose was added to the cultures for 4 hrs and cell viability was measured by incubating the cells with 2 μM calcein AM for 30 min in the dark at 37° C. Fluorescence was then measured using a plate reader with excitation and emission wavelengths set to 485 nm and 520 nm, respectively. The arbitrary fluorescence readings were normalized to the total amount of protein from each respective well of the neuronal cultures. The protein concentrations in each well were determined using the DC protein assay (Bio-Rad). Significant differences in the efficacy of the novologues for increasing cell viability were determined using a Kruskal-Wallis non-parametric ANOVA and Dunn's post-test.

Assay [3] has as its system myelinated cultures of sensory neurons prepared from Hsp70.1 and 70.3 double knockout mice. The settings on record: sensory neurons from Hsp70.1 and 70.3 double knockout mice; cited from earlier work.
The subject of assay [4] is diabetic mice. The settings on record: weekly treatment, cited from earlier work.

By EC50 is commonly meant the concentration at which the effect is half-maximal. By viability is commonly meant the share of living cells, or the viability signal relative to a control. As to `CO[C@@H]1[C@@H](O)[C@@H](O)C(Oc2ccc(CCNC(C)=O)c(-c3cccc(F)c3)c2)OC1(C)C` (stereo partly drawn) [11b, N-(2-(5-(((3R,4S,5R)-3,4-dihydroxy-5-methoxy-6,6-dimethyltetrahydro-2H-pyran-2-yl)oxy)-3′-fluoro-[1,1′-biphenyl]-2-yl)ethyl)acetamide], the “concentration at which Hsp70 levels were induced” value in assay [1] was 10 nM. Moreover, in assay [2] (1 μM novologue + 20 mM excess glucose), the “protection against glucose-induced toxicity (in words)” value is recorded as “showed significant protection against glucotoxicity”. Also, in assay [2] (Rattus norvegicus, Neuron), the EC50 was 13 ± 3.6 nM. The viability at 1 µM in assay [2] (Rattus norvegicus, Neuron, Table 1, 1 μM of each novologue + 20 mM excess glucose, glucose + DMSO was 54% ± 2) is 95%.

Take `CO[C@@H]1[C@@H](O)[C@@H](O)[C@H](Oc2ccc3cc(NC(C)=O)c(=O)oc3c2C)OC1(C)C` [KU-32]: the “prevention of neuregulin-induced demyelination” value in assay [3] is “ineffective”. Also, the EC50 in assay [2] was 240 ± 42.5 nM. Moreover, in assay [4] (diabetic Hsp70 knockout mice), the “reversal of clinical indices of DPN” value is “unable to reverse multiple clinical indices of DPN”. For the same compound, the “sensory and motor nerve function” value in assay [4] (diabetic wild type mice) was “restored normal sensory and motor nerve function”.

(Values after US12679860B2, “C-terminal HSP90 inhibitors” (UNIVERSITY OF KANSAS, priority 2012, dated 2026).)
